A short description of data set [1]: Chemical stability (H2O, pH 7.4). It counts as physicochemical.
Another data set has as its system TLR 7. Kind of data set: TLR 7 transcription ratio, AD patient / control PBMCs (qPCR). The following applies: Aβ stimulation. It counts as cell-based, human. On the procedure: (§1) qPCR reactions of cultured monocyte cDNAs. One μL total cellular cDNA per reaction is used in triplicate reactions for each test gene, and for each culture treatment. SYBR-Green reactions were run on a Continuous Fluorescence real-time thermocycler and analyzed. Cycle threshold (Ct) values are recorded for each replicate reaction, and are then averaged and normalized against mean Ct values from one or more control genes. Fold-expression differences relative to untreated cells are determined using the 2^−ΔΔCt method as previously described. Data from the curcumin concentration range are plotted in order to determine EC50 values (concentrations producing one-half maximal stimulant activity), which are used for comparisons of potency between different compounds. Data are also evaluated for each gene with regard to sensitivity, maximally effective concentration of curcuminoid, response to Aβ, and overall magnitude of fold-expression changes.
(§2) MGAT3 and/or TLR transcription were tested by qPCR in human monocyte cells treated with curcuminoids and compared the results to those treated with vehicle (Table 7). As discussed above, activation or up-regulation of macrophage MGAT3 or TLR's results in many functional outcomes, including the enhancement of […] and removal of Aβ, increased apoptosis, secretion of inflammatory cytokines, and other anti-AD antimicrobial activities. […]

The next data set in a line: Average permeability. It counts as in vitro ADME. As to conditions: not told.
In the next data set the test system is TLR 8. Kind of data set: TLR 8 transcription ratio, AD patient / control PBMCs (qPCR). It counts as cell-based, human. The following applies: Aβ stimulation. On the procedure:
as §1, §2
(In general: Real-time PCR tracks product formation cycle by cycle.)

The subject of data set [2] is MGAT3. The data set can be described thus: MGAT3 expression in response to oxidative stress (H2O2) in neuroblastoma cells. It counts as cell-based, human. As to conditions: H2O2, data not shown. The procedure:
Gene expression in response to oxidative stress. […] The neuroblastoma SHSY5Y and wtSOD^+ overexpressing cells were subjected to varying concentrations of hydrogen peroxide (H2O2; 0.5-5 mM) for varying times. After 1, 2, and 3 hours of incubation, cells were harvested, total RNAs were isolated, and prepared cDNAs were used in qPCR experiments to quantify normalized mRNA levels. MGAT3 expression in untransfected cells increased in relation to oxidative stress conditions, with peak expression (>200-fold increased) at 2-3 hours in the presence of 2.5 mM H2O2. Again, increased SOD1 expression appeared to potentiate MGAT3 expression, with higher maximal MGAT3 expression (>300-fold increased) observed in the wtSOD^+ line, and at lower H2O2 concentrations (e.g. 0.5 mM). […] Further, curcumins may potentiate the cellular response to oxidative stress and may therefore have a protective effect.

For another data set, the system named is TLR 3. The data set can be described thus: TLR 3 transcription ratio, AD patient / control PBMCs (qPCR). It counts as cell-based, human. The following applies: Aβ stimulation. Put shortly:
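Via qPCR on cultured human monocyte cDNA, curcuminoid-treated versus vehicle, with Aβ stimulation, in AD patient and control cells. SYBR-Green triplicate reactions; Ct averaged, normalised to control genes, fold change by 2^−ΔΔCt. EC50 taken from curcumin concentration-response data.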

Data set [3] deals with MGAT3. The data set can be described thus: MGAT3 gene expression by qPCR in U-937 human monocytic cells treated with curcumins plus Aβ. It counts as cell-based. As to conditions: human monocytic cells (U-937), curcumin plus Aβ. The procedure: (§3) Cell culture conditions for monocytic cell lines. Human and mouse monocyte cell lines are grown in RPMI-1640 medium with 10% fetal bovine serum (FBS), plus glutamine and pen/strep. For treatment with compounds (curcuminoids+/−Aβ), replicate sets of 0.5-1.0 mL cultures containing 1-2×10^6 cells are set up in the wells of 48-well tissue culture plates. Both replicate sets have at least one control well receiving no added curcuminoid to provide baseline expression controls for untreated, and Aβ-only treated cells. Remaining wells receive curcuminoid in a range of 10-fold serial dilutions in DMSO, typically from […] Cultures are incubated for 20-24 hours (“overnight”) at 37° C. in atmosphere with 5% CO2. After one overnight, to one of replicate sets of cultures is added Aβ (1-42) peptide to a final concentration of 5 μg/mL.
(§4) RNA isolation and cDNA synthesis. After the first overnight incubation in the presence of curcuminoid, cells from one replicate set of wells are collected by centifugation. RNAs are extracted from pelleted cells using miniprep column kits following manufacturer's protocol for animal cells. […] of total cellular RNA from each well is quantitated using a Nanodrop spectrophotometer, and first-strand total cDNA is prepared from 0.3-1.0 μg RNA by random-hexamer priming. Following the second 20 hr. incubation in the presence of Aβ, RNA extractions and cDNA synthesis are similarly performed.
Assay development. Gene-specific mRNA levels are determined using a real-time thermocycler, and by normalizing to expression of one or more control genes. Assays for quantifying mRNA levels are based on gene sequences reported in NCBI Genbank. PCR oligonucleotide primers are selected spanning introns to minimize the opportunity for amplication from any contaminating genomic DNA in the RNA preps. Oligonucleotides are typically tested and used at a concentration of 200 nM in qPCR reactions containing SYBR dye. Control reactions include template from cDNA synthesis reactions either + or − reverse transcriptase (RT), as well as no-template controls (ntc). […] Melt curves based on incremental 0.5° C. increases are determined for new assays to test for uniformity of amplified products. […]
qPCR reactions of cultured monocyte cDNAs. […] SYBR-Green reactions were run on a Continuous Fluorescence real-time thermocycler and analyzed. Cycle threshold (Ct) values are recorded for each replicate reaction, and are then averaged and normalized against mean Ct values from one or more control genes. Fold-expression differences relative to untreated cells are determined using the 2^−ΔΔCt method as previously described. […] Data are also evaluated for each gene with regard to sensitivity, maximally effective concentration of curcuminoid, response to Aβ, and overall magnitude of fold-expression changes. […]

The next data set has as its system TLR3. The data set can be described thus: TLR3 gene expression by qPCR in U-937 human monocytic cells treated with curcumins plus Aβ. It counts as cell-based. The procedure:
as §3, §4
(§5) Assay development. Gene-specific mRNA levels are determined using a real-time thermocycler, and by normalizing to expression of one or more control genes. Assays for quantifying mRNA levels are based on gene sequences reported in NCBI Genbank. PCR oligonucleotide primers are selected spanning introns to minimize the opportunity for amplication from any contaminating genomic DNA in the RNA preps. Oligonucleotides are typically tested and used at a concentration of 200 nM in qPCR reactions containing SYBR dye. Control reactions include template from cDNA synthesis reactions either + or − reverse transcriptase (RT), as well as no-template controls (ntc). All reactions are performed in triplicate. Reactions are typically run with 40 cycles of 95° C. (10 sec) and 58° C. (30 sec). Melt curves based on incremental 0.5° C. increases are determined for new assays to test for uniformity of amplified products. Reaction conditions are modified as needed depending on initial test results. ‘Working’ assays are selected based on clear RNA-dependent amplification and absence of product in ‘ntc’ reactions. The following assay primers are used: […]
as §1
(§6) Data showing in vitro up-regulation of genes associated with Aβ phagocytosis in response to curcumins. Natural curcumins and synthetic analogs were tested in U-937 human monocyte cells in vitro for their ability to modulate expression of the genes MGAT3 and TLRs −2, −3, and −4. […]

A further data set deals with TLR 5. Kind of data set: TLR 5 transcription ratio, AD patient / control PBMCs (qPCR). The following applies: Aβ stimulation. It counts as cell-based, human. On the procedure:
as §1, §2

The test system of the next data set is TLR4. The data set can be described thus: TLR4 gene expression by qPCR in U-937 human monocytic cells treated with curcumins plus Aβ. It counts as cell-based. The following applies: human monocytic cells (U-937), curcumin plus Aβ. The procedure:
as §3, §4, §5
(§7) qPCR reactions of cultured monocyte cDNAs. One μL total cellular cDNA per reaction is used in triplicate reactions for each test gene, and for each culture treatment. SYBR-Green reactions were run on a Continuous Fluorescence real-time thermocycler and analyzed. Cycle threshold (Ct) values are recorded for each replicate reaction, and are then averaged and normalized against mean Ct values from one or more control genes. Fold-expression differences relative to untreated cells are determined using the 2^−ΔΔCt method as previously described. […] Data are also evaluated for each gene with regard to sensitivity, maximally effective concentration of curcuminoid, response to Aβ, and overall magnitude of fold-expression changes. […]

In the next data set the test system is TLR2. Kind of data set: TLR2 gene expression by qPCR in U-937 human monocytic cells treated with curcumins plus Aβ. It counts as cell-based. The following applies: human monocytic cells (U-937), curcumin plus Aβ. On the procedure: as §3, §4, §5, §7
The next data set deals with VDR. Kind of data set: VDR gene expression by qPCR in U-937 human monocytic cells treated with curcumins plus Aβ. The data set is classed as cell-based. The procedure:
as §3, §4, §5, §1, §6

The nature of a further data set: Average solubility. It counts as physicochemical.
Where [4] appears, read: human monocytic cells (U-937), curcumin plus Aβ.

Like-named read-outs stand apart in the source and are kept apart here.

In general, Papp refers to a coefficient for how fast a substance crosses the barrier. Higher therefore signals fast passage. With `O=C(/C=C(O)/C=C/c1ccc(O)cc1)/C=C/c1ccc(O)cc1` [Compound 1, 5-Hydroxy-1,7-bis-(4-hydroxy-phenyl)-hepta-1,4,6-trien-3-one, reference compound], the half-life in data set [1] (water (aqueous solution), pH 7.4, read-out: Chemical stability t1/2 pH 7.4 (converted)) was 14 min; in [1] (water, H2O, read-out: Chemical stability t1/2 H2O (converted)), 60 min. Moreover, in the data set with TLR 7, the “Relative ratio of TLR 7 transcription in AD patient / control PBMC's” value is “TLR 7 ++ ((++) indicates a ratio of 1.5-2.0)”. The molecule also came in with a Papp in the data set “Average permeability” of 305 ± 9 ×10⁻⁶ cm/s. The “Relative ratio of TLR 8 transcription in AD patient / control PBMC's” value with TLR 8 is “TLR 8 + ((+) indicates a ratio of 1.0-1.5)”. For the same molecule, in the data set with MGAT3 [2], the “Effect on MGAT3 expression in response to oxidative stress” value is “enhance MGAT3 expression”. Moreover, the “Relative ratio of TLR 3 transcription in AD patient / control PBMC's” value with TLR 3 is given as “TLR 3 ++ ((++) indicates a ratio of 1.5-2.0)”. For the same molecule, in the data set on MGAT3 [3], the “Relative gene expression MGAT3, increased expression relative to control cells” value was “+ ((+) <20-fold)”. Further, the “TLR3 expression response (in words)” value in the data set on TLR3 (U-937, plus Aβ (FIG. 3)) is “limited response”. Besides, the “Relative gene expression TLR3, increased expression relative to control cells” value in the data set with TLR3 (setting [4]) is reported as “+ ((+) <20-fold)”. Moreover, in the data set with TLR 5, the “Relative ratio of TLR 5 transcription in AD patient / control PBMC's” value is “TLR 5 +++ ((+++ to ++++) indicates a ratio of 2.0 and above)”. For the same molecule, the “Relative gene expression TLR4, increased expression relative to control cells” value with TLR4 is recorded as “+ ((+) <20-fold)”. The “Relative gene expression TLR2, increased expression relative to control cells” value in the data set with TLR2 is given as “+ ((+) <20-fold)”. Besides, the “VDR normalized expression response (in words)” value in the data set on VDR (human monocytes, plus Aβ) was “modest increases”. Also, in the data set with VDR (setting [4]), the “Relative gene expression VDR, increased expression relative to control cells” value is listed as “+ ((+) <20-fold)”. For the same molecule, in “Average solubility”, the “Avg. Solubility” value was “insol”.
